The Ki is a dissociation constant, usually derived from enzyme kinetics or from competition with a known ligand.

These results are taken from patent US20070032418A1, “Small-molecule inhibitors of angiogenin and rnases and in vivo and in vitro methods of using same” (Ambion, Inc, priority 2003, published 2007).

In the first experiment the target is angiogenin (ANG) (Homo sapiens, UniProt P03950). Briefly: Inhibition of ANG ribonucleolytic activity, HPLC assay of oligonucleotide cleavage. Type of experiment: biochemical. The conditions noted are these: 20 mM Hepes, 100 mM NaCl, pH 7.0, 37° C.; read-out: Ki for inhibition of the ribonucleolytic activity of angiogenin. The protocol: Reaction mixtures with and without test compounds were chromatographed on a Mono Q anion-exchange column with an NaCl gradient in 10 mM Tris, pH 8. […] This information was used to calculate kcat/Km values, which were then fitted to the equation (kcat/Km)i=(kcat/Km)0/[…], where (kcat/Km)i and (kcat/Km)0 are defined as the values in the presence and absence of inhibitor, respectively, and [I] is defined as the inhibitor concentration. At least four concentrations (in a range of about 10 μM-above 100 μM) were used in the final hit confirmation in order to distinguish all true hits.
angiogenin (ANG), sequence (P03950 25-147): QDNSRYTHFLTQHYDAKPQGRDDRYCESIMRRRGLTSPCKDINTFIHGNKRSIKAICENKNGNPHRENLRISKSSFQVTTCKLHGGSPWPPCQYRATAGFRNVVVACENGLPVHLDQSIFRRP
Chemical structures of selected compounds are shown in these Tables and in FIGS. 4 and 5.
Take `O=C(c1ccc(C(=O)O)c(NC(=O)c2cccc3ccccc23)c1)c1ccc(C(=O)O)c(NC(=O)c2cccc3ccccc23)c1` [CB-181431, 4,4′-dicarboxy-3,3′-bis(naphthylamido)-diphenylmethanone]: the Ki is 41 µM.

Staying with this experiment, now noted: inhibition of ANG-catalyzed cleavage of an RNA oligonucleotide; 20 mM Hepes, 100 mM NaCl, 37° C.
On to `Nc1cccc(C(=O)Nc2ccc3c(O)cc(S(=O)(=O)O)cc3c2)c1` [NCI-1743], for which the KI entry is “in- active at 75 uM”.
The same measure, in the same setting: the value for `Nc1c(OCC(=O)O)ccc2cc(S(=O)(=O)O)ccc12` [NCI-16163] was “in- active at 75 uM”; that for `O=C(Nc1cc(S(=O)(=O)O)cc2cc(S(=O)(=O)O)cc(O)c12)c1ccccc1` [NCI-16169] was “in- active at 75 uM”.
Same read-out and setting: the value for `O=S(=O)(O)c1cc(O)c2c(/N=C/c3ccccc3O)cc(S(=O)(=O)O)cc2c1` [NCI-88947] was “in- active at 75 uM”.

The experiment is the same for the next values; noted with them: inhibition of ANG-catalyzed cleavage of an RNA oligonucleotide; 20 mM Hepes, 100 mM NaCl, 37° C.; read-out: KI.
For `O=S(=O)(O)c1cc(O)c2c(O)c(N=Nc3c(O)c(S(=O)(=O)O)cc4cc(S(=O)(=O)O)cc(O)c34)c(S(=O)(=O)O)cc2c1`, the Ki is more than 1000 µM.

The same experiment, now with this note: read-out: KI.
On to `O=S(=O)(O)c1ccc2c(/N=N/c3ccc(S(=O)(=O)O)c4ccccc34)c(O)c(S(=O)(=O)O)cc2c1` [Amaranth], for which the Ki is 60 µM.
As for `O=S(=O)(O)c1cc(O)c2ccc(Nc3ccc4c(O)cc(S(=O)(=O)O)cc4c3)cc2c1` [NCI-1698], the Ki turned out to be 172 µM.
Regarding `Nc1ccc(C(=O)Nc2ccc(C(=O)Nc3ccc4c(O)cc(S(=O)(=O)O)cc4c3)cc2)cc1` [NCI-1741], the Ki is approximately 600 µM.
As for `Cc1ccc(/N=N/c2c(O)ccc3cc(S(=O)(=O)O)ccc23)cc1` [NCI-7814], the Ki turned out to be 175 µM.
Still for that read-out and setting: in the case of `Cc1cc(-c2ccc(/N=N/c3c(N)c(S(=O)(=O)O)cc4cc(S(=O)(=O)O)ccc34)c(C)c2)ccc1/N=N/c1cc(S(=O)(=O)O)c2ccccc2c1N` [NCI-7815] it was 14 µM; in that of `O=S(=O)(O)c1cc(/N=N/c2c(O)ccc3ccccc23)c2c(O)c(/N=N/c3ccc(S(=O)(=O)O)c4ccccc34)c(S(=O)(=O)O)cc2c1` [NCI-8674], 158 µM; in that of `O=[N+]([O-])c1ccc(/N=N/c2c(S(=O)(=O)O)cc3cc(S(=O)(=O)O)ccc3c2O)c([N+](=O)[O-])c1` [NCI-9360], 307 µM.
For the compound `COc1cc(-c2ccc(/N=N/c3ccc4c(S(=O)(=O)O)cc(S(=O)(=O)O)c(N)c4c3O)c(OC)c2)ccc1/N=N/c1ccc2c(S(=O)(=O)O)cc(S(=O)(=O)O)c(N)c2c1O` [NCI-9617, Chicago Sky Blue 6B], the inhibition constant Ki amounted to 5 µM.
The same measure, in the same setting: the value for `O=C(O)c1ccccc1/N=N/c1c(O)c(S(=O)(=O)O)cc2cc(S(=O)(=O)O)ccc12` [NCI-12455] was 239 µM; that for `O=C(Nc1ccc2cc(S(=O)(=O)O)cc(S(=O)(=O)O)c2c1)Nc1ccc2cc(S(=O)(=O)O)cc(S(=O)(=O)O)c2c1` [NCI-12857] was 336 µM.
On the same count and under the same terms, the value for `Cc1cc(-c2ccc(/N=N/c3c(N)c(S(=O)(=O)O)cc4cc(S(=O)(=O)O)ccc34)c(C)c2)ccc1/N=N/c1c(N)ccc2cc(S(=O)(=O)O)ccc12` [NCI-16224, direct red 34] was 5.5 µM.
For `COc1ccc(/C=N/c2c(O)ccc3ccccc23)cc1OC` [NCI-17061], the Ki came to 900 µM.
For the compound `Nc1ccc(/N=N/c2ccc(/C=C/c3ccc(/N=N/c4ccc(N)c5ccc(S(=O)(=O)O)cc45)cc3S(=O)(=O)O)c(S(=O)(=O)O)c2)c2cc(S(=O)(=O)O)ccc12` [NCI-34933], the Ki was 172 µM.
On to `O=C(Nc1ccc2cc(S(=O)(=O)O)ccc2c1)c1ccc([N+](=O)[O-])cc1` [NCI-37169], for which the inhibitory constant (Ki) was 950 µM.
`Nc1ccc(C(=O)Nc2cc(S(=O)(=O)O)cc3cccc(O)c23)cc1` [NCI-37176]: the Ki stood at 104 µM.
Same read-out and setting: in the case of `O=C(O)c1cc(O)c(O)c(OC(=O)c2cc(O)c(O)c(O)c2CNc2ccc3cc(S(=O)(=O)O)cc(S(=O)(=O)O)c3c2)c1` [NCI-42067] it was 245 µM; in that of `O=[N+]([O-])c1ccc(/N=N/c2c(O)ccc3cc(S(=O)(=O)O)ccc23)cc1` [NCI-45538], 305 µM.
The same measure, in the same setting: in the case of `O=[N+]([O-])c1ccc(/N=N/c2c(O)c(S(=O)(=O)O)cc3cc(S(=O)(=O)O)ccc23)cc1` [NCI-45540] it was 307 µM; in that of `O=[N+]([O-])c1cccc(/N=N/c2c(O)c(S(=O)(=O)O)cc3cc(S(=O)(=O)O)ccc23)c1` [NCI-45541], 244 µM.
With `O=[N+]([O-])c1ccc(/N=N/c2c(S(=O)(=O)O)cc3cc(S(=O)(=O)O)cc(O)c3c2O)cc1` [NCI-45542], the Ki was found to be 426 µM.
Same read-out and setting: in the case of `Nc1cc(S(=O)(=O)O)cc2cc(S(=O)(=O)O)c(/N=N/c3ccc([N+](=O)[O-])cc3)c(O)c12` [NCI-45550] it was 183 µM.
Still for that read-out and setting: the value for `Cc1ccc(/N=N/c2c(N)ccc3cc(S(=O)(=O)O)ccc23)c(C)c1` [NCI-45569] was 194 µM; that for `CC(=O)Nc1ccc(/N=N/c2ccc(N)c3cc(S(=O)(=O)O)ccc23)cc1` [NCI-45571] was 300 µM; that for `O=C(Nc1ccc2cc(S(=O)(=O)O)ccc2c1)c1ccc(/N=N/c2cc(S(=O)(=O)O)c3ccccc3c2O)cc1` [NCI-45608] was 75 µM.
With `O=C(O)c1cc(/N=N/c2ccc(/N=N/c3c(Nc4ccccc4)ccc4cc(S(=O)(=O)O)cc(O)c34)cc2)ccc1O` [NCI-45612], the Ki is 158 µM.
On the same count and under the same terms, in the case of `Nc1ccc(/N=N/c2ccc(-c3ccc(/N=N/c4ccc(N)c5cc(S(=O)(=O)O)ccc45)cc3)cc2)c2ccc(S(=O)(=O)O)cc12` [NCI-45618] it was 15 µM.
Same read-out and setting: in the case of `O=C(O)c1c(O)ccc(/N=N/c2ccc(/N=N/c3ccc4c(S(=O)(=O)O)cccc4c3O)c3ccccc23)c1O` [NCI-47735] it was 85 µM.
Still for that read-out and setting: in the case of `O=[N+]([O-])c1ccc(/N=N/c2c(O)c(/N=N/c3cc([N+](=O)[O-])cc([N+](=O)[O-])c3O)cc(/N=N/c3cc(S(=O)(=O)O)cc4cc(S(=O)(=O)O)cc(O)c34)c2O)cc1` [NCI-47740] it was 15 µM; in that of `COc1cc(/N=N/c2cc(S(=O)(=O)O)cc3cc(S(=O)(=O)O)cc(O)c23)c(C)cc1/N=N/c1c(S(=O)(=O)O)cc2cc(Nc3ccccc3)ccc2c1O` [NCI-47755], 84 µM; in that of `O=S(=O)(O)c1ccc(/N=N/c2ccc(/N=N/c3c(O)ccc4cc(S(=O)(=O)O)ccc34)cc2)cc1` [NCI-58047], 36 µM.
Take `O=S(=O)(O)c1ccc(/N=N/c2ccc(/N=N/c3c(O)ccc4cc(S(=O)(=O)O)cc(S(=O)(=O)O)c34)cc2)cc1` [NCI-65546]: the Ki amounted to 129 µM.
Turning to `COc1cc(/N=N/c2ccc(S(=O)(=O)O)cc2)ccc1/N=N/c1c(O)ccc2cc(S(=O)(=O)O)ccc12` [NCI-65553], the Ki was 29 µM.
For `Cc1cc(-c2ccc(/N=N/c3c(O)ccc4cc(S(=O)(=O)O)cc(S(=O)(=O)O)c34)c(C)c2)ccc1/N=N/c1c(O)c(S(=O)(=O)O)cc2cc(S(=O)(=O)O)ccc12` [NCI-65568], the Ki was 23 µM.
`Cc1cc(/N=N/c2ccc(NC(=O)c3ccccc3)c3ccc(S(=O)(=O)O)cc23)ccc1/N=N/c1ccc2c(O)cc(S(=O)(=O)O)cc2c1` [NCI-65844]: the inhibition constant Ki turned out to be 108 µM.
Take `Cc1cc(NC(=O)c2ccc(/N=N/c3c(O)c(S(=O)(=O)O)cc4cc(S(=O)(=O)O)ccc34)cc2)ccc1/N=N/c1ccc2cc(S(=O)(=O)O)cc(S(=O)(=O)O)c2c1` [NCI-65845]: the Ki worked out at 3 µM.
The same measure, in the same setting: in the case of `Cc1cc(/N=N/c2ccc(/N=N/c3c(O)c(S(=O)(=O)O)cc4cc(S(=O)(=O)O)ccc34)cc2C)ccc1/N=N/c1ccc2cc(S(=O)(=O)O)cc(S(=O)(=O)O)c2c1` [NCI-65847] it was 38 µM; in that of `Nc1ccc2cc(S(=O)(=O)O)cc(O)c2c1/N=N/c1ccc(-c2ccc(/N=N/c3c(S(=O)(=O)O)cc4cc(S(=O)(=O)O)c(/N=N/c5ccc([N+](=O)[O-])cc5)c(N)c4c3O)cc2)cc1` [NCI-65855], 129 µM.
On the same count and under the same terms, the value for `CC(=O)Nc1ccc(/N=N/c2ccc3cc(S(=O)(=O)O)cc(NC(C)=O)c3c2O)cc1` [NCI-73416] was 77 µM.
Still for that read-out and setting: the value for `Nc1c(/N=N/c2cc(Cl)ccc2Cl)c(S(=O)(=O)O)cc2cc(S(=O)(=O)O)c(/N=N/c3ccc(Sc4ccc(/N=N/c5ccc(O)cc5)cc4)cc3)c(O)c12` [NCI-75661] was 76 µM; that for `Nc1ccc2cc(S(=O)(=O)O)cc(O)c2c1/N=N/c1ccc(-c2ccc(/N=N/c3c(N)ccc4cc(S(=O)(=O)O)cc(O)c34)cc2)cc1` [NCI-75778] was 171 µM.
As for `O=S(=O)(O)c1cc(O)c2c(/N=N/c3ccc(/N=N/c4c(S(=O)(=O)O)cc5cc(Nc6ccccc6)ccc5c4O)c4ccccc34)cc(S(=O)(=O)O)cc2c1` [NCI-75916], the Ki worked out at 125 µM.
The same measure, in the same setting: in the case of `Cc1nn(-c2cc(S(=O)(=O)O)ccc2Cl)c(O)c1/N=N/c1c(NC(=O)c2ccc(N)cc2)ccc2cc(S(=O)(=O)O)ccc12` [NCI-75963] it was 129 µM; in that of `Nc1ccc2c(O)c(/N=N/c3ccc(-c4ccc(/N=N/c5c(S(=O)(=O)O)cc6cc(S(=O)(=O)O)c(/N=N/c7cc(Cl)ccc7Cl)c(N)c6c5O)cc4)cc3)c(S(=O)(=O)O)cc2c1` [NCI-77521], 195 µM; in that of `Nc1ccc(/N=N/c2ccc(-c3ccc(/N=N/c4c(S(=O)(=O)O)cc5cc(S(=O)(=O)O)c(/N=N/c6ccccc6)c(O)c5c4N)cc3)cc2)c2ccc(S(=O)(=O)O)cc12` [NCI-79596], 5 µM.
On the same count and under the same terms, in the case of `Nc1c(/N=N/c2ccc(-c3ccc(/N=N/c4c(O)ccc5cc(S(=O)(=O)O)cc(S(=O)(=O)O)c45)cc3)cc2)c(S(=O)(=O)O)cc2cc(S(=O)(=O)O)c(/N=N/c3ccccc3)c(O)c12` [NCI-79741] it was 23 µM; in that of `Nc1ccc2cc(S(=O)(=O)O)c(/N=N/c3ccc(-c4ccc(/N=N/c5c(S(=O)(=O)O)cc6cc(S(=O)(=O)O)c(/N=N/c7cccc([N+](=O)[O-])c7)c(N)c6c5O)cc4)cc3)c(O)c2c1` [NCI-79744], 244 µM.
